Assay results as given in patent publication US8691865B2 (AbbVie Inc., priority 2008, dated 2014).

Each compound was assayed against human Cav2.2 (Homo sapiens, UniProt Q00975) (assay: Assessment of calcium channel activity using FLIPR (Ca2+ influx in IMR32 cells)). Details: not given.
Assay type: cell-based
Outline: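 Human neuroblastoma IMR32 cells were seeded at 1−1.2×10^5 cells/well and cultured 48 h at 37 °C before FLIPR calcium influx measurement. Percent inhibition at each concentration was calculated against the no-inhibitor signal, and IC50 came from sigmoidal dose-response fits.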

Chain of human Cav2.2 (Q00975 whole entry): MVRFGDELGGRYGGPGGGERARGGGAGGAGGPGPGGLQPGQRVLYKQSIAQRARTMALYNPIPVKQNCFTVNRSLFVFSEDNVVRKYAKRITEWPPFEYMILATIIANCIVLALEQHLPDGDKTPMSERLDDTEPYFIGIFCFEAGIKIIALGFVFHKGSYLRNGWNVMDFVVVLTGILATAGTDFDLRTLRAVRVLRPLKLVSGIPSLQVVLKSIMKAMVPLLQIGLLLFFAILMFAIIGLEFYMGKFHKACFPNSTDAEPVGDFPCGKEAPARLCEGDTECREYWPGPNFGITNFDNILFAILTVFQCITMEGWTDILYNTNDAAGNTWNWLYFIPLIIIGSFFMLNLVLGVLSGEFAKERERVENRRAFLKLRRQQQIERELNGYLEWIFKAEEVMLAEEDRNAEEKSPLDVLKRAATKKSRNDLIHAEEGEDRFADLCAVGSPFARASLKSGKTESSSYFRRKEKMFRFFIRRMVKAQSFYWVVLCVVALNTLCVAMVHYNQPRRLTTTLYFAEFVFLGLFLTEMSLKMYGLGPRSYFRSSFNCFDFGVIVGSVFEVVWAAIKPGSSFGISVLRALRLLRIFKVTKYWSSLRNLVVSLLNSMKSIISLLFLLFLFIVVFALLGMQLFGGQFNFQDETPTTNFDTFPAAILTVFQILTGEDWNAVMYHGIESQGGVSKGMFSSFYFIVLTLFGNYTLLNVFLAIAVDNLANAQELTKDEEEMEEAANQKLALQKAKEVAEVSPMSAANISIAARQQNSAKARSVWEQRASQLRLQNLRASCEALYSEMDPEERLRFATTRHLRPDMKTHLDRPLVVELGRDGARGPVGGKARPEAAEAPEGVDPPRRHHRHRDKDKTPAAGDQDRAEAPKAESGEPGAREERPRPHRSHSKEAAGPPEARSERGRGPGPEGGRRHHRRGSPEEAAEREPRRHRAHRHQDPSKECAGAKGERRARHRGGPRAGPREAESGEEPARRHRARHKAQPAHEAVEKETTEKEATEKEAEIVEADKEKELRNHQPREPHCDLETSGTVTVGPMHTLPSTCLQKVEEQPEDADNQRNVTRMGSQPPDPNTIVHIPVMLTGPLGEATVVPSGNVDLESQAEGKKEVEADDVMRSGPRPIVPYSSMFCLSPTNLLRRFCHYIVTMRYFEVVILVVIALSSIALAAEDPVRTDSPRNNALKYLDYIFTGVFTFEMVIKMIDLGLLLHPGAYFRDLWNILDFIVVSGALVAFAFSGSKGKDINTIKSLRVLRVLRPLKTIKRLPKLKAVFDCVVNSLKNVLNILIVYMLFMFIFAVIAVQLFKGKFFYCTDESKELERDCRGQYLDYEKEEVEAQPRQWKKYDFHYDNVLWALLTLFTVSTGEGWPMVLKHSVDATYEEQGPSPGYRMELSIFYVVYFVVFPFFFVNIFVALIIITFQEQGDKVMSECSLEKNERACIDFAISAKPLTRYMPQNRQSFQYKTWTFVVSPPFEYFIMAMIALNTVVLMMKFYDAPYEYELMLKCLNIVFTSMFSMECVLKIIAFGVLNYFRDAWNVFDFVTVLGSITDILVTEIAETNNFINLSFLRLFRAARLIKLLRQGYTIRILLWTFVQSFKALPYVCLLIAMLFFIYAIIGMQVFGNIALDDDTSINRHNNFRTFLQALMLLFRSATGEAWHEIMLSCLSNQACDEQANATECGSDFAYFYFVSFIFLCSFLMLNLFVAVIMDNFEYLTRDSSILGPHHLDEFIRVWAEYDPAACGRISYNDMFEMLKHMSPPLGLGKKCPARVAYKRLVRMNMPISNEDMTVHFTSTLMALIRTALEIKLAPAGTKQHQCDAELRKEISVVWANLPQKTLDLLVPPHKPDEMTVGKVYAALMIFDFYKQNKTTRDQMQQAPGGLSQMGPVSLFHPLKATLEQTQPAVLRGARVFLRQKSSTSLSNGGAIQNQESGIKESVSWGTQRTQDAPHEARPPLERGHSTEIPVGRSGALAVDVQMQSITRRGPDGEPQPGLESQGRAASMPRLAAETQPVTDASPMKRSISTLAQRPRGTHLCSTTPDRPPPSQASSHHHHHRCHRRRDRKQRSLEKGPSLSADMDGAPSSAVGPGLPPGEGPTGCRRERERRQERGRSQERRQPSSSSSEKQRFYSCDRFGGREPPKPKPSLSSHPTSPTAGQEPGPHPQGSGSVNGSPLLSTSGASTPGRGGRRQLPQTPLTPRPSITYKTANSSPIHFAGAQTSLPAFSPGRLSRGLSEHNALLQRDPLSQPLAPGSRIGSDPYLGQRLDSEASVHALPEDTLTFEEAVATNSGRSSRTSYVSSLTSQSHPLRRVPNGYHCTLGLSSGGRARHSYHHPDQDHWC
Chain of human Cav2.2 (P54289 25-956 partner limits assumed): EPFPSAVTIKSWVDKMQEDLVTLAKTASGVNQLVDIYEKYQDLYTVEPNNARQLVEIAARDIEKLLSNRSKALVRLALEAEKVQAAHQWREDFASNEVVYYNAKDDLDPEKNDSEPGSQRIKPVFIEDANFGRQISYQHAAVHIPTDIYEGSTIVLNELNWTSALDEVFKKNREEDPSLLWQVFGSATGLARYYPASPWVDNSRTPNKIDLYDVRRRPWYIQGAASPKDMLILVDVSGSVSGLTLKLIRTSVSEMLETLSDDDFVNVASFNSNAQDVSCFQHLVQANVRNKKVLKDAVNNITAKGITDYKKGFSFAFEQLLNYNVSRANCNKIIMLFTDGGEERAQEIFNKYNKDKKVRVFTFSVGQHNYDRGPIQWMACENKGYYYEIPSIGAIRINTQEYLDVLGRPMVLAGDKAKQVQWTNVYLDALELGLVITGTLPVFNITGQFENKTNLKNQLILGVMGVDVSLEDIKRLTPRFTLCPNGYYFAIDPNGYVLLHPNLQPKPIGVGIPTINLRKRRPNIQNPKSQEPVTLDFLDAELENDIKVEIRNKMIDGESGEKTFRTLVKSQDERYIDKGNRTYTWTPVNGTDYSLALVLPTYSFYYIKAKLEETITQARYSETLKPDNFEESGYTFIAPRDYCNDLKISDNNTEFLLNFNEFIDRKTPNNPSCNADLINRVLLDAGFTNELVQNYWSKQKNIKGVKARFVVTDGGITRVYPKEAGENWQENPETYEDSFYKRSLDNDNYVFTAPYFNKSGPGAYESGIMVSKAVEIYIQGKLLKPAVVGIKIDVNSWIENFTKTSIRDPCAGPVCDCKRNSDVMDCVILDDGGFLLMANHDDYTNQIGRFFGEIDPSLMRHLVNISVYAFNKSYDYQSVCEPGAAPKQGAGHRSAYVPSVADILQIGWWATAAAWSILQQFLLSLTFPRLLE
Chain of human Cav2.2 (P54289 957-1103 partner limits assumed): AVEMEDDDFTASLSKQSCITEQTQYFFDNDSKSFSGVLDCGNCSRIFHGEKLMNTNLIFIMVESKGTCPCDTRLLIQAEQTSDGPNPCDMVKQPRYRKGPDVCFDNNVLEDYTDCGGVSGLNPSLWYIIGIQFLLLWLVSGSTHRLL
Chain of human Cav2.2 (P54284 whole entry partner): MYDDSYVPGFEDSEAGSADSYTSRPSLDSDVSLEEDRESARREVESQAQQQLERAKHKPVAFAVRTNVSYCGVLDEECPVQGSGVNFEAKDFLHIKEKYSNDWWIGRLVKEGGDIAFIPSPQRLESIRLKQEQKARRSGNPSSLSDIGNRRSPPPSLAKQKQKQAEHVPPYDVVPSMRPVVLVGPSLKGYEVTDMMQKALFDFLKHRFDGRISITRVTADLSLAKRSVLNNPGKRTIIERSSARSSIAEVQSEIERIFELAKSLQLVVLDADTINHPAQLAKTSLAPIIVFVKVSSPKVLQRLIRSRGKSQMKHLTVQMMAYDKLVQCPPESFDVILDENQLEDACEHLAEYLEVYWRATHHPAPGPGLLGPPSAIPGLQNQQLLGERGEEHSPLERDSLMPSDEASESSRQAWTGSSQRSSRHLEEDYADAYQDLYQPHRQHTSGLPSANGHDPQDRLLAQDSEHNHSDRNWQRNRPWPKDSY

Compound	IC50 [µM]
O=S(=O)(N[C@@H]1CC[C@@H]2CN(Cc3cccc(C(F)(F)F)c3)C[C@@H]21)c1cccc(C(F)(F)F)c1 [Example 188, 3-(trifluoromethyl)-N-{(3aR,4R,6aS)-2-[3-(trifluoromethyl)benzyl]octahydrocyclopenta[c]pyrrol-4-yl}benzenesulfonamide]	0.85
CN[C@@H](CC(C)C)C(=O)N[C@H]1CC[C@@H]2CN(Cc3ccccc3)C[C@@H]21 [Example 348, N^1-[(3aR,4S,6aS)-2-benzyloctahydrocyclopenta[c]pyrrol-4-yl]-N^2-methyl-L-leucinamide]	> 30
Cc1nc(CN[C@H]2CC[C@@H]3CN(c4cccc(C(F)(F)F)n4)C[C@@H]32)c[nH]1 [Example 676, (3aR,4S,6aS)-N-[(2-methyl-1H-imidazol-4-yl)methyl]-2-[6-(trifluoromethyl)pyridin-2-yl]octahydrocyclopenta[c]pyrrol-4-amine]	4.2
COc1cccc(N2C[C@H]3CC[C@H](NC(=O)[C@@H]4C[C@@H](F)CN4)[C@H]3C2)c1 [Example 645, (4R)-4-fluoro-N-[(3aR,4S,6aS)-2-(3-methoxyphenyl)octahydrocyclopenta[c]pyrrol-4-yl]-L-prolinamide]	> 30
Fc1ccc2[nH]c(CN[C@H]3CC[C@@H]4CN(c5ccc(C(F)(F)F)cc5)C[C@@H]43)cc2c1 [Example 615, (3aR,4S,6aS)-N-[(5-fluoro-1H-indol-2-yl)methyl]-2-[4-(trifluoromethyl)phenyl]octahydrocyclopenta[c]pyrrol-4-amine]	13.7
Cc1c(CN[C@H]2CC[C@@H]3CN(c4cccc(C(F)(F)F)n4)C[C@@H]32)[nH]c2ccc(F)cc12 [Example 667, (3aR,4S,6aS)-N-[(5-fluoro-3-methyl-1H-indol-2-yl)methyl]-2-[6-(trifluoromethyl)pyridin-2-yl]octahydrocyclopenta[c]pyrrol-4-amine]	1.49
C[C@H](C(=O)N[C@H]1CC[C@H]2CN(Cc3ccccc3)C[C@H]21)c1cccc(C(=O)c2ccccc2)c1 (relative stereo) [Example 12, (2S)-2-(3-benzoylphenyl)-N-[(3aS*,4S*,6aR*)-2-benzyloctahydrocyclopenta[c]pyrrol-4-yl]propanamide]	1.22
Fc1cc(F)cc(-c2n[nH]cc2CN[C@H]2CC[C@@H]3CN(c4cccc(C(F)(F)F)n4)C[C@@H]32)c1 [Example 687, (3aR,4S,6aS)-N-{[3-(3,5-difluorophenyl)-1H-pyrazol-4-yl]methyl}-2-[6-(trifluoromethyl)pyridin-2-yl]octahydrocyclopenta[c]pyrrol-4-amine]	1.27
O=C(N[C@H]1CC[C@H]2CNC[C@H]21)C(C1CCCCC1)C1CCCCC1 [Example 53, 2,2-dicyclohexyl-N-[(3aS,4S,6aR)-octahydrocyclopenta[c]pyrrol-4-yl]acetamide]	8.54
Cc1oncc1C(=O)N[C@H]1CC[C@@H]2CN(c3cccc(C(F)(F)F)n3)C[C@@H]21 [Example 581, 5-methyl-N-{(3aR,4S,6aS)-2-[6-(trifluoromethyl)pyridin-2-yl]octahydrocyclopenta[c]pyrrol-4-yl}-1,2-oxazole-4-carboxamide]	2.99

The next lines start with the values.

IC50 [µM]	Compound
2.31	CC[C@H](C)[C@H](NC)C(=O)N[C@H]1CC[C@@H]2CN(S(=O)(=O)c3ccc(C(F)(F)F)cc3)C[C@@H]21 [Example 411, N^2-methyl-N^1-((3aR,4S,6aS)-2-{[4-(trifluoromethyl)phenyl]sulfonyl}octahydrocyclopenta[c]pyrrol-4-yl)-L-isoleucinamide]
2.05	CC(C)CC(C(=O)NC1CCC2CN(Cc3ccc(C(F)(F)F)c(F)c3)CC21)N(C)C(=O)OC(C)(C)C [Example 311, tert-butyl(S)-1-((3aS,4R,6aR)-2-(3-fluoro-4-(trifluoromethyl)benzyl)octahydrocyclopenta[c]pyrrol-4-ylamino)-4-methyl-1-oxopentan-2-ylmethyl)carbamate]
> 30	CCC[C@H](NC)C(=O)N[C@H]1CC[C@H]2CN(Cc3ccccc3)C[C@H]21 [Example 359, N^1-[(3aS,4S,6aR)-2-benzyloctahydrocyclopenta[c]pyrrol-4-yl]-N^2-methyl-L-norvalinamide]
0.81	O=C(N[C@H]1CC[C@@H]2CN(c3cccc(C(F)(F)F)n3)C[C@@H]21)c1ccc(F)c(F)c1 [Example 565, 3,4-difluoro-N-{(3aR,4S,6aS)-2-[6-(trifluoromethyl)pyridin-2-yl]octahydrocyclopenta[c]pyrrol-4-yl}benzamide]
2.18	O=C(N[C@H]1CC[C@@H]2CN(c3cccc(C(F)(F)F)n3)C[C@@H]21)[C@@H]1CC(F)(F)CN1 [Example 595, 4,4-difluoro-N-{(3aR,4S,6aS)-2-[6-(trifluoromethyl)pyridin-2-yl]octahydrocyclopenta[c]pyrrol-4-yl}-L-prolinamide]
0.61	Fc1ccc2nc(CN[C@H]3CC[C@@H]4CN(c5cccc(C(F)(F)F)n5)C[C@@H]43)[nH]c2c1 [Example 691, (3aR,4S,6aS)-N-[(6-fluoro-1H-benzimidazol-2-yl)methyl]-2-[6-(trifluoromethyl)pyridin-2-yl]octahydrocyclopenta[c]pyrrol-4-amine]
> 9.5	CN[C@H](C(=O)N[C@H]1CC[C@@H]2CN(c3ccc(OC(F)(F)F)cc3)C[C@@H]21)C(C)C [Example 756, N^2-methyl-N-{(3aR,4S,6aS)-2-[4-(trifluoromethoxy)phenyl]octahydrocyclopenta[c]pyrrol-4-yl}-L-valinamide]
4.5	O=S(=O)(N[C@H]1CC[C@@H]2CN(c3cccc(C(F)(F)F)n3)C[C@@H]21)c1ccccc1Cl [Example 701, 2-chloro-N-{(3aR,4S,6aS)-2-[6-(trifluoromethyl)pyridin-2-yl]octahydrocyclopenta[c]pyrrol-4-yl}benzenesulfonamide]
> 30	CC(C)C[C@@H](C(=O)N[C@@H]1CC[C@H]2CN(Cc3ccccc3)C[C@H]21)N1CCOCC1 [Example 249, (2S)-N-[(3aS,4R,6aR)-2-benzyloctahydrocyclopenta[c]pyrrol-4-yl]-4-methyl-2-morpholin-4-ylpentanamide]
2.06	O=C(N[C@H]1CC[C@@H]2CN(c3cccc(C(F)(F)F)n3)C[C@@H]21)c1cccc(O)c1 [Example 577, 3-hydroxy-N-{(3aR,4S,6aS)-2-[6-(trifluoromethyl)pyridin-2-yl]octahydrocyclopenta[c]pyrrol-4-yl}benzamide]
6.93	CN[C@@H](CC(C)C)C(=O)N[C@H]1CC[C@@H]2CN(c3cccnc3C(F)(F)F)C[C@@H]21 [Example 767, N^2-methyl-N-{(3aR,4S,6aS)-2-[2-(trifluoromethyl)pyridin-3-yl]octahydrocyclopenta[c]pyrrol-4-yl}-L-leucinamide]
2.07	CCC(CC)C(=O)N[C@H]1CC[C@H]2CN(Cc3cccc(C(F)(F)F)c3)C[C@H]21 (relative stereo) [Example 125, 2-ethyl-N-{(3aS*,4S*,6aR*)-2-[3-(trifluoromethyl)benzyl]octahydrocyclopenta[c]pyrrol-4-yl}butanamide]
3.34	CN[C@@H](CC(C)C)C(=O)N[C@H]1CC[C@@H]2CN(c3cncc(C(F)(F)F)c3)C[C@@H]21 [Example 736, N^2-methyl-N-{(3aR,4S,6aS)-2-[5-(trifluoromethyl)pyridin-3-yl]octahydrocyclopenta[c]pyrrol-4-yl}-L-leucinamide]

Same assay, conditions: read-out: IC50 (μM) or percent inhibition (* indicates 3 minute incubation, otherwise 60 minute); IC50; 60 minute pre-incubation with compound; IMR32 cells, 80 mM KCl depolarization

Compound	IC50 [µM]
CC(C)C[C@@H](C(=O)N[C@@H]1CC[C@H]2CN(Cc3ccccc3)C[C@H]21)N(C)C(=O)OC(C)(C)C [Example 151, N^1-[(3aS,4R,6aR)-2-benzyloctahydrocyclopenta[c]pyrrol-4-yl]-N^2-(tert-butyloxycarbonyl)-N^2-methyl-L-leucinamide]	0.71
COc1ccccc1CN1C[C@H]2CC[C@H](NC(=O)C(c3ccccc3)C(C)C)[C@H]2C1 (stereo partly drawn) [Example 94, N-[(3aR,4S,6aS)-2-(2-methoxybenzyl)octahydrocyclopenta[c]pyrrol-4-yl]-3-methyl-2-phenylbutanamide]	2.33
CC(C)C(C(=O)N[C@H]1CC[C@@H]2CN(CCC(c3ccccc3)c3ccccc3)C[C@@H]21)c1ccccc1 (stereo partly drawn) [Example 116, N-[(3aR,4S,6aS)-2-(3,3-diphenylpropyl)octahydrocyclopenta[c]pyrrol-4-yl]-3-methyl-2-phenylbutanamide]	1.17
CC(C)(C)C(C(=O)N[C@@H]1CC[C@H]2CN(Cc3ccccc3)C[C@H]21)c1ccccc1 (stereo partly drawn) [Example 30, N-[(3aS,4R,6aR)-2-benzyloctahydrocyclopenta[c]pyrrol-4-yl]-3,3-dimethyl-2-phenylbutanamide]	1.81
CC(C)C[C@H](C(=O)N[C@H]1CC[C@H]2CN(Cc3cccc(C(F)(F)F)c3)C[C@H]21)N(C)C(=O)OC(C)(C)C (relative stereo) [Example 139, N^2-(tert-butyloxycarbonyl)-N^2-methyl-N^1-{(3aS*,4S*,6aR*)-2-[3-(trifluoromethyl)benzyl]octahydrocyclopenta[c]pyrrol-4-yl}-D-leucinamide]	1.01
4-methyl-N^1-{(3aR,4S,6aS)-2-[2-(methylsulfonyl)pyrimidin-5-yl]octahydrocyclopenta[c]pyrrol-4-yl}-L-leucinamide [Example 442]	7.18

More lines, now with the values ahead:

IC50 [µM]	Compound
1.57	O=C(N[C@@H]1CC[C@H]2CN(Cc3ccccc3)C[C@H]21)C(c1ccccc1)C1CCCC1 (stereo partly drawn) [Example 17, N-[(3aS,4R,6aR)-2-benzyloctahydrocyclopenta[c]pyrrol-4-yl]-2-cyclopentyl-2-phenylacetamide]
5.67	O=C(N[C@@H]1CC[C@H]2CN(Cc3ccc(C(F)(F)F)c(F)c3)C[C@H]21)C(C1CCCCC1)C1CCCCC1 [Example 76, 2,2-dicyclohexyl-N-{(3aS,4R,6aR)-2-[3-fluoro-4-(trifluoromethyl)benzyl]octahydrocyclopenta[c]pyrrol-4-yl}acetamide]
9.36	CC(C)(C)OC(=O)N[C@H](C(=O)N[C@H]1CC[C@@H]2CN(Cc3ccccc3)C[C@@H]21)C(C)(C)C [Example 225, tert-butyl(S)-1-((3aR,4S,6aS)-2-benzyloctahydrocyclopenta[c]pyrrol-4-ylamino)-3,3-dimethyl-1-oxobutan-2-ylcarbamate]
